Patent publication US9125937B2, “Labelled analogues of halobenzamides as multimodal radiopharmaceuticals and their precursors” (INSTITUT NATIONAL DE LA SANTE ET DE LA RECHERCHE MEDICALE …, priority 2008, dated 2015)

Assays:
[1] = tested on: B16F10 and B16F0 murine melanoma tumour grafts; assay: PET imaging of melanoma-bearing mice; assay type: in vivo, C57BL6 mice
Protocol: Imaging Protocol. Three sets of mice were prepared for PET imaging as described in FIG. 3 in annex: • (Set 1) Four C57BL6 mice bearing both B16F10 and B16F0 murine melanoma tumour grafts on the flanks were anaesthetized with isoflurane and injected with [^18F]10 (200 μCi). Two were imaged immediately during the first hour after injection, allowed to recover from anaesthesia, anaesthetized again at two hours post injection and imaged between two and two-and-a-half hour after injection, allowed to recover from anaesthesia, anaesthetized again at four hours post injection and imaged between four and four-and-a-half hour after injection, then sacrificed and their organs weighed and counted. Two other mice were allowed to recover from anaesthesia, anaesthetized at two hours post injection and imaged between two and two-and-a-half hour after injection, allowed to recover from anaesthesia, anaesthetized again at four hours post injection and imaged between four and four-and-a-half hour after injection, then sacrificed and their organs weighed and counted. • (Set 2) Two C57BL6 mice bearing both B16F10 and B16F0 murine melanoma tumour grafts on the shoulders (so as to avoid contaminating signals originating from with digestive and urinary tracts) were injected with [^18F]10 (200 μCi), imaged under isoflurane anesthesia continuously during two hours, then sacrificed and their organs weighed and counted. • (Set 3) One C57BL6 mouse bearing both B16F10 and B16F0 murine melanoma tumour grafts on the shoulders (so as to avoid contaminating signals originating from with digestive and urinary tracts) was injected with [^18F]10 (600 μCi), allowed to recover, anaesthetized with isoflurane six hours post injection, imaged during 30 minutes between six and six-and-a-half hours post injection.
PET Imaging. […] All values of radioactivity concentrations were normalized for radioactivity decay, as well as by the injected dose of radiotracer, and expressed as percentage of the injected dose per volume of tissue (% ID/cc). […]

[2] = tested on: B16F10 and B16F0 murine melanoma tumour grafts; assay: Ex vivo biodistribution by organ counting after PET imaging; assay type: in vivo; settings: two-and-a-half and four-and-a-half hours after i.v. injection, FIG. 4
Protocol: Imaging Protocol. Three sets of mice were prepared for PET imaging as described in FIG. 3 in annex: • (Set 1) Four C57BL6 mice bearing both B16F10 and B16F0 murine melanoma tumour grafts on the flanks were anaesthetized with isoflurane and injected with [^18F]10 (200 μCi). Two were imaged immediately during the first hour after injection, allowed to recover from anaesthesia, anaesthetized again at two hours post injection and imaged between two and two-and-a-half hour after injection, allowed to recover from anaesthesia, anaesthetized again at four hours post injection and imaged between four and four-and-a-half hour after injection, then sacrificed and their organs weighed and counted. […]
Biodistribution. [^18F]10 biodistribution was analysed for the mice of set 1 (n=4) four-and-a-half hours after injection, and for the mice of set 2 (n=2) two-and-a-half hours after injection. Animals were sacrificed by lethal injection of pentobarbital and organs were collected, weighed and radioactivity of each sample was measured on a Cobra gamma counter (Packard). […]

SMILES: CCN(CCNC(=O)c1cnc2cc(I)ccc2n1)CCOc1cccnc1[18F] [[^18F]10, [^18F]N-[2-[N-ethyl-N-[2-(2-fluoropyridin-3-yloxy)ethyl]amino]ethyl]-6-iodoquinoxaline-2-carboxamide]
- Uptake (% injected dose per volume tumour graft) in B16F0 relative to B16F10 tumour grafts ([1]; 2 and 4 hours post injection, same animal, FIGS. 5 and 6): more than two-to-three times higher
- Uptake in B16F0 with respect to B16F10 ([1]; dynamic PET, FIG. 7, Set 2): two-to-three times higher
- Contrast between melanoma grafts and surrounding tissue on PET images ([1]; two to two-and-a-half hours and six to six-and-a-half hours post injection): evident contrast
- Biodistribution in selected organs (% ID/CC), tumour targeting [2]: specifically target melanoma tumours in vivo
